Here are results for seven compounds from ChEMBL document CHEMBL4842359, “1,3-Diarylpyrazolyl-acylsulfonamides as Potent Anti-tuberculosis Agents Targeting Cell Wall Biosynthesis in Mycobacterium tuberculosis” (J Med Chem, 2021).

What all share (assay): microbe, parasite or virus in culture
Experiment [1] concerns Mycobacterium tuberculosis. The following applies: 336 h.
Experiment [2] deals with Mycobacterium tuberculosis. The following applies: MD96.
For experiment [3], the system named is Mycobacterium tuberculosis. The conditions noted are these: R296.
Experiment [4] concerns Mycobacterium tuberculosis. The following applies: MD55.
In experiment [5] the test system is Mycobacterium tuberculosis. The conditions noted are these: R88.
Experiment [6] deals with Mycobacterium tuberculosis. The following applies: R3027.

≈ marks a conversion by molar mass, not a printed value. Where only a bound is given, the exact number is not on record here.

For `CO[C@H]1/C=C/O[C@@]2(C)Oc3c(C)c(O)c4c(O)c(c(/C=N/N5CCN(C)CC5)c(O)c4c3C2=O)NC(=O)/C(C)=C\C=C\[C@H](C)[C@H](O)[C@@H](C)[C@@H](O)[C@@H](C)[C@H](OC(C)=O)[C@@H]1C` [RIFAMPIN], in experiment [1], the MIC turned out to be 0.001 µM (≈ 0.000823 µg/mL).
On the same count and under the same terms, then `CS(=O)(=O)NC(=O)NCc1cc(-c2ccc(Br)cc2)oc1-c1ccncc1`, with less than 0.13 µM; and `CS(=O)(=O)NC(=O)NCc1cn(-c2ccc(Cl)cc2)nc1-c1ccncc1`, with less than 0.12 µM.
As to `CS(=O)(=O)NC(=O)CCc1cn(-c2ccc(Br)cc2)nc1-c1ccncc1`, the MIC in experiment [2] was not above 30 µM; in experiment [3] it was 60 µM (≈ 27 µg/mL); in experiment [4], 60 µM (≈ 27 µg/mL); in experiment [5] it was 30 µM (≈ 13.5 µg/mL); in experiment [6], 60 µM (≈ 27 µg/mL).
Take `NNC(=O)c1ccncc1` [ISONIAZID]: the MIC in experiment [1] was determined as 31.2 µM (≈ 4.28 µg/mL).
For `CS(=O)(=O)NC(=O)CCc1cn(-c2ccc(Br)cc2)nc1-c1ccc(Cl)cc1`, in experiment [1], the MIC is 0.4 µM (≈ 0.193 µg/mL).
The same measure, in the same setting: under `CS(=O)(=O)NC(=O)CCc1cn(-c2ccc(Cl)cc2)nc1-c1ccc(Cl)cc1` stands 0.24 µM (≈ 0.105 µg/mL).
